Reference: ChEMBL document CHEMBL3352758, “Structural Analysis of the Binding of Type I, I1/2, and II Inhibitors to Eph Tyrosine Kinases” (ACS Med Chem Lett, 2015)

Target: T1, Ephrin type-B receptor 4 (Homo sapiens, UniProt P54760)
T1 sequence (P54760 whole entry): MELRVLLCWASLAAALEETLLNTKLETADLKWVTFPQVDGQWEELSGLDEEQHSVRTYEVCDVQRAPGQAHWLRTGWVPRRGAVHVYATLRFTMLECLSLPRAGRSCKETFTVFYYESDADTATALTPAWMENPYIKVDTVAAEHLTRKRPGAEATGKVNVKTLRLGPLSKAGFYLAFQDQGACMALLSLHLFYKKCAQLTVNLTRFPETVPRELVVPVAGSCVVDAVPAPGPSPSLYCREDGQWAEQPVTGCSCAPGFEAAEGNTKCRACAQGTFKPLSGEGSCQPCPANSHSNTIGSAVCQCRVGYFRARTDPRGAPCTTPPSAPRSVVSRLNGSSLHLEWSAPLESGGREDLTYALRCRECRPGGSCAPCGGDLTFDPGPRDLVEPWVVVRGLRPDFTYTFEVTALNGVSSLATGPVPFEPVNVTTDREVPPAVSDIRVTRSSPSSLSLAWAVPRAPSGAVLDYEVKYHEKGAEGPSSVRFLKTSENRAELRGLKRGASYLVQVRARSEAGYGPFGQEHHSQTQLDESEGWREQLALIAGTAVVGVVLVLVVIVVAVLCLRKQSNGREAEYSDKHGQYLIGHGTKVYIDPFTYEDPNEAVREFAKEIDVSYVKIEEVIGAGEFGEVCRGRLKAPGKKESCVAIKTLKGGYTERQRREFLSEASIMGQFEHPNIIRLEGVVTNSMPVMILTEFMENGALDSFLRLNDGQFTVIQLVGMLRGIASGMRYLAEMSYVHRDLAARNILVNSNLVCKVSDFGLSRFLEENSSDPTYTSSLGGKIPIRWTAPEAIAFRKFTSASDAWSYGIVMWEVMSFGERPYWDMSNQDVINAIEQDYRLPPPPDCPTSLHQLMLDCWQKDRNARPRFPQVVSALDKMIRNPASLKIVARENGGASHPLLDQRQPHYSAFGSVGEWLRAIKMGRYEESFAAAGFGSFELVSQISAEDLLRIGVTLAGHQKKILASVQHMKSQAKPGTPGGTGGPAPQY
Experiment: Inhibition of EphB4 (unknown origin) by FRET-based enzymatic assay in presence of 30 uM ATP; call rule not given here

IC50 (read-out: IC50) [µM] | SMILES | IC50
8 | Cc1ccc(-c2csc(NC(=O)CCCC(=O)O)c2C(N)=O)cc1C | 
 | Cc1ccc(-n2nc(C(C)(C)C)cc2NC(=O)Nc2ccc(OCCN3CCOCC3)c3ccccc23)cc1 [DORAMAPIMOD] | Not Active
